Entries after “also recorded” stand apart in the source; their conditions may differ. Marks after values point to notes of the source that are not given here. Ends that are not written are not given here. * marks the point of attachment. FITC = O=C1OC2(c3ccc(O)cc3Oc3cc(O)ccc32)c2ccc(NC(=S)*)cc21
What was measured:
[1] = tested on: PPC1, M12, DU145, and LNCaP orthotopic xenografts; experiment: Fluorescein-conjugated REA peptide homing to orthotopic human prostate cancer xenografts; format: in vivo, mouse
Experimental: Custom immunization to produce a rabbit antiserum against mouse Prox-1 was performed by Proteintech Inc. New Zealand White rabbits were immunized with a fusion protein of GST-C-terminal fragment of Prox-1 protein. The antibody was affinity purified on the fusion protein and absorbed with GST. […] Antibodies against the lymphatic markers anti-LYVE-1 (Laakkonen et al., 2002) and anti-podoplanin (kindly provided by T. Petrova and K. Alitalo), rat monoclonal anti-mouse CD31 (BD Pharmingen), rat anti-mouse MECA-32 (Pharmingen), rabbit polyclonal anti-T7 phage, and rat anti-mouse VEGFR3 were used for immunohistochemical staining of frozen tissue sections as described (Joyce et al., 2003; Laakkonen et al., 2002). The corresponding secondary antibodies were added and incubated for 1 hr at room temperature: AlexaFluor-488 goat anti-rat or rabbit IgG (1:1000; Molecular Probes, Eugene, Oreg.), AlexaFluor-594 goat anti-rat or rabbit IgG (1:1000, Molecular Probes), AlexaFluor-594 donkey anti-mouse or goat IgG (1:1000, Molecular Probes), and AlexaFluor-488 donkey anti-mouse or goat IgG (1:1000; Molecular Probes), respectively. The slides were washed three times with PBS and mounted in Vectashield Mounting Medium with DAPI (Vector Laboratories, Burlingame, Calif.). […]

[2] = tested on: K14-HPV16/E2 cervical lesions; experiment: Distribution of fluorescent peptides in K14-HPV16/E2 mice with cervical lesions; format: in vivo, mouse; settings: labeled peptide i.v.
Experimental: (§1) The frozen sections were prepared for immunohistological analysis.

C8161 xenografts = experiment: In vivo phage homing to C8161 xenograft tumors; design: species or system mouse; settings: for phage homing to C8161 tumors (in words): i.v. injected phage, C8161 xenograft mice
Experimental: (§2) The following cell lines were maintained in DMEM supplemented with 10% FCS: C8161 human melanoma, MDA-MB-435 human breast cancer, KRIB human osteosarcoma, and human prostate cancer cells PPC1, DU145. LNCaP human prostate cancer cell line was grown in RPMI 1640 medium with 10 mM HEPES, 1 mM sodium pyruvate and 1.5 g/L sodium bicarbonate supplemented with 10% FCS. M12 human prostate cancer cell line was cultured in RPMI 1640 with 5 μg/ml insulin-transferrin-sodium selenite (ITS), 2.5 μg/ml fungizone, 50 μg/ml gentamycin, 0.2 μM dexamethasone, 10 ng/ml epidermal growth factor (EGF), and 5% FCS (Bae et al., 1998). To produce tumors, nude BALB/c and C56BL/6 mice were subcutaneously (C8161, KRIB, and PPC1) or orthotopically ([…], PPC1, DU145, M12, and LNCaP) injected with 1×10^6 tumor cells. Transgenic mouse tumor models included TRAMP prostate cancer, MMTV-PyMT breast cancer, and K14-HPV16 cervical cancer. To initiate cervical carcinogenesis, female K14-HPV16 mice (Arbeit et al., 1994) were treated with 17β-estradiol (E2; (Arbeit et al., 1996; Giraudo et al., 2004). Briefly, one-month-old virgin female transgenic (heterozygous K14-HPV16, 1203#1) and nontransgenic (FVB/n) mice were anesthetized with isoflurane, and continuous release pellets that deliver E2 at doses of 0.05 mg over 60 days (Innovative Research of America, Sarasota, Fla., USA) were implanted subcutaneously in the dorsal back skin. Subsequent pellets were implanted at 3 and 5 months of age for a total of 6 months of hormone treatment. K14-HPV16 mice were maintained in the FVB/n background (FVB/n; The Jackson Laboratory). The mice were maintained in accordance with the University of California, San Francisco (UCSF) institutional guidelines governing the care of laboratory mice. The animal experimentation was approved by Animal Research Committees at UCSF or The Burnham Institute.
(§3) In vivo homing specificity of phage was tested as described (Hoffman, 2004). Briefly, mice bearing tumors were anesthetized and intravenously injected with 5×10^9 pfu of phage. After 7 min, the mice were perfused through the heart with PBS containing 0.5% BSA. The tumor and control organs were dissected from each mouse and the phage were rescued and tittered. For histology analysis, the mice were perfused with 4% PFA 30 min after the injection of phage. Tissues were embedded in Tissue-Tek O.C.T. and 5 μm sections were prepared for phage immunostaining.

KRIB xenografts = experiment: In vivo phage homing to KRIB xenografts; design: species or system mouse; settings: for phage homing to KRIB xenografts (in words): i.v. injected phage
Experimental: as §2, §3

CXCR4 = molecular target: T1, CXCR4 (Homo sapiens, UniProt P61073); experiment: Phage binding to CXCR4-transfected 293T cells
T1 construct: expressed in transfected cells; host or cells: 293T cells, transient transfection with FuGene 6
T1 sequence (P61073 whole entry, species assumed): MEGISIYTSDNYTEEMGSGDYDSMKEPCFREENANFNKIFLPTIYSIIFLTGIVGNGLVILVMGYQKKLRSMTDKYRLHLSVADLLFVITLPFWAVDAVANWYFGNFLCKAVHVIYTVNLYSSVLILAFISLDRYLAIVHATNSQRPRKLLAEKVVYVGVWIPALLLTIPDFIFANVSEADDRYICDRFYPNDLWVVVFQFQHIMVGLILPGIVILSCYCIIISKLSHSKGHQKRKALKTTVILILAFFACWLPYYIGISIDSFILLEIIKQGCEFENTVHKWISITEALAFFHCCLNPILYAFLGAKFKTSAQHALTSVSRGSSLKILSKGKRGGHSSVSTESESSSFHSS
Experimental: The 293T cells were transfected with plasmids encoding CXCR4 (Helbig et al., 2003) or VEGFR2 (Borges et al., 2000) using FuGene 6 transfection reagent (Roche Diagnostics, Indianapolis, Ind.). Briefly, plasmid (10 μg) was mixed with 900 μl of serumfree DMEM and 50 μl of FuGene and incubated for 15 min at room temperature before adding the mixture to the cells. The cells were detached using EDTA after 48 hrs post transfection and washed with PBS containing 1% BSA. Phage (5×10^9 pfu) were incubated with the transfected cells and bound phage were rescued and titrated. For competitive binding assay, the cognate peptide (150 μg/ml) or antibody (50 μg/ml) was added during incubating of the phage with cells. Targeted proapoptotic peptide treatment of tumor-bearing mice Prostate cancer model. Orthotopic xenografted prostate tumors were established by injecting 1×10^6 PPC1 human prostate cancer cells into the mouse prostate. Fifteen days post inoculation, the mice were intravenously injected with D(KLAKLAK)2-CREAGRKAC (SEQ ID NO:41), an equimolar mixture of D(KLAKLAK)2 (SEQ ID NO:19) and CREAGRKAC (SEQ ID NO:6), or PBS. Biweekly injections of 100 μg/dose/mouse were given for three weeks. Melanoma model. Nude BALB/c mice were subcutaneously injected with 1×10^6 C8161 human melanoma cells. Treatment started when mean tumor volumes reached about 100 mm3. Mice with size-matched tumors were randomized into three groups. The therapeutic group received a chimera of tumor homing peptide with the proapoptotic motif (D(KLAKLAK)2-CLSDCGKRKC; SEQ ID NO:42). The control groups received an equimolar mixture of CLSDGKRKC (SEQ ID NO:4) and D(KLAKLAK)2 (SEQ ID NO:19), or PBS alone. The tumor-bearing mice were intravenously injected with 200 μg/dose/mouse once a week for three weeks. The mice were monitored for weight loss, and tumors were dissected and weighed at the termination of the experiment. Histological analysis was performed to evaluate the density of tumor lymphatics and blood vessels. The animal experiments reported here were approved by The Burnham Institute Animal Research Committee.

[3] = tested on: MDA-MB-435 orthotopic xenografts; experiment: In vivo phage homing to MDA-MB-435 orthotopic xenografts; design: species or system mouse
Experimental: as §2, §3

VEGFR2 = molecular target: T2, VEGFR2 (Homo sapiens, UniProt P35968); experiment: Phage binding to VEGFR2-transfected 293T cells
T2 construct: expressed in transfected cells; host or cells: 293T cells, transient transfection with FuGene 6
T2 sequence (P35968 20-1356, species assumed): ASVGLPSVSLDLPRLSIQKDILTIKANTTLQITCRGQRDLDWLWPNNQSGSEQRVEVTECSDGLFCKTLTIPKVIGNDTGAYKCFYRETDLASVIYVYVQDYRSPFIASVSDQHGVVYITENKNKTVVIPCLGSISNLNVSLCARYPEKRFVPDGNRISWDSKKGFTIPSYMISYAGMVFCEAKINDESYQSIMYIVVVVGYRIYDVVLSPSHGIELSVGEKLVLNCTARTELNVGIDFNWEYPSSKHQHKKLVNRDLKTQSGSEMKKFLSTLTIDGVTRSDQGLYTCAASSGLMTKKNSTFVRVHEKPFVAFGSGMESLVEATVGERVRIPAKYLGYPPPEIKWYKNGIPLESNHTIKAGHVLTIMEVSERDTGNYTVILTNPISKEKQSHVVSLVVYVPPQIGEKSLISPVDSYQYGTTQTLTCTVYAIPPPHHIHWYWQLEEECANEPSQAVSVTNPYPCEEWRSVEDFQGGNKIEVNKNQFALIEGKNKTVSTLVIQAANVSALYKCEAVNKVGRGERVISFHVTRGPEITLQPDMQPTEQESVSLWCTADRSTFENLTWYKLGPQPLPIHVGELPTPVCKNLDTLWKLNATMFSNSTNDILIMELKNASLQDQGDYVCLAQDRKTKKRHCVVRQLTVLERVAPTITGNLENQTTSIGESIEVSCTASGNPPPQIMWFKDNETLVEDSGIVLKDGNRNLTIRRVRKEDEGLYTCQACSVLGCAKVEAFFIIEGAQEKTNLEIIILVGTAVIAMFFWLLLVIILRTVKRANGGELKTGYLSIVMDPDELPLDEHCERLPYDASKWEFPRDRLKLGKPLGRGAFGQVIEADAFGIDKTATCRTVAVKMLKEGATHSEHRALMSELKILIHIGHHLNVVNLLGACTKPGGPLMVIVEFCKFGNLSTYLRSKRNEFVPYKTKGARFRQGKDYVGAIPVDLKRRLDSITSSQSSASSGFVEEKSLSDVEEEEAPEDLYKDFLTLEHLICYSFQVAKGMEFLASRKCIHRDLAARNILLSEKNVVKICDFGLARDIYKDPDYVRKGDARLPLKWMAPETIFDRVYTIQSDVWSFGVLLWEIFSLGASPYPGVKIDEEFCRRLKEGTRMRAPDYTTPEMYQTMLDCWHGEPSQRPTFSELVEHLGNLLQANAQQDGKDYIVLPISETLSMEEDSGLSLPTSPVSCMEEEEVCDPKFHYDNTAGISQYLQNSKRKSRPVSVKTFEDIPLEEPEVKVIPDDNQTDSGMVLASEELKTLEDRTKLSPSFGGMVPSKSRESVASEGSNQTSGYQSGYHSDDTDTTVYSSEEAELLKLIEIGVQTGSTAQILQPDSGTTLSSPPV
Experimental: The 293T cells were transfected with plasmids encoding CXCR4 (Helbig et al., 2003) or VEGFR2 (Borges et al., 2000) using FuGene 6 transfection reagent (Roche Diagnostics, Indianapolis, Ind.). Briefly, plasmid (10 μg) was mixed with 900 μl of serumfree DMEM and 50 μl of FuGene and incubated for 15 min at room temperature before adding the mixture to the cells. The cells were detached using EDTA after 48 hrs post transfection and washed with PBS containing 1% BSA. Phage (5×10^9 pfu) were incubated with the transfected cells and bound phage were rescued and titrated. For competitive binding assay, the cognate peptide (150 μg/ml) or antibody (50 μg/ml) was added during incubating of the phage with cells. Targeted proapoptotic peptide treatment of tumor-bearing mice Prostate cancer model. Orthotopic xenografted prostate tumors were established by injecting 1×10^6 PPC1 human prostate cancer cells into the mouse prostate. Fifteen days post inoculation, the mice were intravenously injected with D(KLAKLAK)2-CREAGRKAC (SEQ ID NO:41), an equimolar mixture of D(KLAKLAK)2 (SEQ ID NO:19) and CREAGRKAC (SEQ ID NO:6), or PBS. Biweekly injections of 100 μg/dose/mouse were given for three weeks. Melanoma model. […] The mice were monitored for weight loss, and tumors were dissected and weighed at the termination of the experiment. […]

MMTV-PyMT breast tumors = experiment: In vivo phage homing to MMTV-PyMT breast tumors; design: species or system mouse
Experimental: as §2, §3

K14-HPV16 skin cancer = experiment: In vivo homing to K14-HPV16 skin cancer; design: species or system mouse
Experimental: as §2, §3

C8161 tumors = experiment: Tissue distribution of fluorescein-conjugated LSD peptide in C8161 tumor mice; format: in vivo, mouse; design: fluorescence in all other tissues except tumors: dose or concentration left out as unconfirmed; settings: for fluorescent peptide in C8161 tumors and control organs: fluorescein-conjugate peptide i.v., 2 hrs circulation
Experimental: as §1

KRIB tumors = experiment: Fluorescein-labeled LSD peptide homing to KRIB tumors; format: in vivo, mouse; settings: fluorescein-labeled peptide i.v.
Experimental: as §1

[4] = tested on: cell suspensions prepared from C8161 tumors; experiment: Phage binding to cell suspensions prepared from C8161 tumors; format: cell-based, mouse; settings: phage clone, ex vivo
TRAMP prostate tumors = experiment: In vivo phage homing to TRAMP prostate tumors; design: species or system mouse
Experimental: as §2, §3

[5] = tested on: PPC1 orthotopic xenografts; experiment: In vivo phage homing to PPC1 orthotopic xenografts; design: species or system mouse
Experimental: as §2, §3

[6] = tested on: the other tumors, including the skin cancers; experiment: Fluorescein-labeled LSD peptide homing to other tumors; format: in vivo, mouse; settings: fluorescein-labeled peptide i.v.
Experimental: as §1

[7] = phage homing in vivo, C8161 (s.c.) xenografts
[8] = phage homing in vivo, KRIB xenografts
[9] = phage homing in vivo, MDA-MB-435 orthotopic xenografts
[10] = phage homing in vivo, MMTV-PyMT breast tumors
[11] = phage homing in vivo, K14-HPV16 skin cancer
[12] = fluorescein-conjugate peptide, C8161 tumor sections
[13] = phage homing in vivo, TRAMP prostate tumors
[14] = phage homing in vivo, PPC1 orthotopic xenografts

## FITC-REA: fluorescein-labeled REA peptide (CREAGRKAC) (not fully specified (N-terminus); cysteine pairing not given here; also: FITC label, position not given here)
[1]; fluorescein-conjugated peptide
  fluorescent peptide in PPC1, M12, DU145, LNCaP orthotopic xenografts: positive
[1]; immunohistochemical analysis
  co-localization with lymphatic vessels in orthotopic prostate tumor xenografts: co-localized with lymphatic vessels
[2]
  fluorescent peptide in K14-HPV16/E2 cervical lesions/tumors (in words): homed to a lesser extent

## CLSDGKRKC [homing peptide for C8161 melanoma lymphatics]
C8161 xenografts
  phage homing to C8161 tumors (in words): Robust phage homing
C8161 xenografts; listed as CLSDGKRKC
  phage homing to C8161 tumors (in words): homed selectively to the tumors
C8161 xenografts; listed as LSD phage
  phage homing to C8161 tumors (in words): significantly higher than in normal tissues
C8161 xenografts; i.v. injection, nude mice bearing C8161 tumors
  relative efficiency of tumor homing of the two phage: about twice as efficient as CLDGGRPKC
C8161 xenografts; [7]
  Fold over control phage: 39 fold
  Specific Homing: Yes
KRIB xenografts
  phage homing to KRIB xenografts (in words): slightly positive
KRIB xenografts; listed as LSD phage
  phage homing to KRIB xenografts (in words): possible low-level homing
KRIB xenografts; [8]
  Fold over control phage: 7^‡ fold
  Specific Homing: Yes
CXCR4; 293T cells
  phage binding to CXCR4-transfected 293T cells (in words): binds to 293T cells transfected with CXCR4
  phage binding to CXCR4-transfected 293T cells versus mock- or VEGFR2-transfected cells: 16 fold
CXCR4; peptide 150 μg/ml co-incubated with phage, listed as LSD peptide
  inhibition of LSD phage binding to CXCR4-transfected 293T cells: inhibits LSD-phage binding; also recorded: inhibited the binding
[3]; i.v. injected phage, listed as LSD phage
  phage homing to MDA-MB-435 tumors (in words): did not appreciably home
[3]; [9]
  Fold over control phage: 3 fold
  Specific Homing: No
VEGFR2
  phage binding to VEGFR2-transfected 293T cells (in words): not to cells transfected with VEGFR2
MMTV-PyMT breast tumors; i.v. injected phage
  phage homing to MMTV-PyMT breast tumors (in words): did not appreciably home
MMTV-PyMT breast tumors; [10]
  Fold over control phage: 3 fold
  Specific Homing: No
K14-HPV16 skin cancer; i.v. injection, K14-HPV16 mice
  homing to K14-HPV16 skin cancers (in words): possible low-level homing
K14-HPV16 skin cancer; [11]
  Fold over control phage: 5 fold
  Specific Homing: No
C8161 tumors
  fluorescent peptide in C8161 tumors and control organs: detected within the tumors, but not in control organs
C8161 tumors; [12]
  co-localization with blood vessel markers MECA-32 and CD31: no co-localization
  co-localization with lymphatic vessel markers podoplanin, Prox-1, LYVE-1, VEGFR3: co-localization of the LSD fluorescence with them
C8161 tumors; fluorescein-conjugate peptide, C8161 tumors
  lymphatic vessels positive for the peptide that were also positive for podoplanin: 85%
KRIB tumors
  fluorescent peptide homing to KRIB tumors (in words): slightly positive
[4]
  binding to C8161 tumor cell suspensions relative to control phage: 100 fold
  binding to cell suspensions prepared from C8161 tumors (in words): bound to cell suspensions prepared from C8161 tumors
TRAMP prostate tumors; i.v. injected phage
  phage homing to TRAMP prostate tumors (in words): did not appreciably home
TRAMP prostate tumors; [13]
  Fold over control phage: 1 fold
  Specific Homing: No
[5]; i.v. injected phage
  phage homing to PPC1 orthotopic xenografts (in words): did not appreciably home
[5]; [14]
  Fold over control phage: 3 fold
  Specific Homing: No

## FITC-LSD: fluorescein-conjugated LSD peptide (CLSDGKRKC) ({FITC}-CLSDGKRKC; cysteine pairing not given here)
[6]
  fluorescent peptide homing to the other tumors, including skin cancers: negative
C8161 tumors; FITC-LSD (150 mg) i.v., 2 hrs
  fluorescence in kidneys: A few spots of LSD fluorescence
C8161 tumors; FITC-LSD i.v., 2 hrs
  fluorescence in all other tissues except tumors: negative
C8161 tumors
  fluorescent peptide in C8161 tumors and control organs: Strong LSD peptide fluorescence
KRIB tumors
  fluorescent peptide homing to KRIB tumors (in words): weakly positive

From US8536132B2, “Lymphatic zip codes in tumors and pre-malignant lesions” (Sanford-Burnham Medical Research Institute, priority 2006, dated 2013)
